≈ marks a conversion by molar mass, not a printed value.

Test [1] has as its system Haemophilus influenzae. The test can be described thus: Antimicrobial activity against Haemophilus influenzae 895 (AcrB-KO) by NCCLS method. The format is functional.
The subject of the next test is Streptococcus pneumoniae. The test can be described thus: Antimicrobial activity against Streptococcus pneumoniae 02J1175 expressing mef(A) gene by NCCLS method. In kind it is functional.
A further test concerns Streptococcus pyogenes. The test can be described thus: Antimicrobial activity against Streptococcus pyogenes Msr 610 expressing erm(B) gene by NCCLS method. In kind it is functional.
Another test relates to Enterococcus faecalis. The test can be described thus: Antimicrobial activity against linezolid-resistant Enterococcus faecalis P5 by NCCLS method. In kind it is functional.
The subject of test [2] is Haemophilus influenzae. The test can be described thus: Antimicrobial activity against Haemophilus influenzae RD1 by NCCLS method. In kind it is functional.
Test [3] has as its system Escherichia coli. The test can be described thus: Inhibition of protein synthesis in Escherichia coli by translation assay.
Test [4] has as its system Escherichia coli. The test can be described thus: Inhibition of protein synthesis in Escherichia coli S30 extract by translation assay. The format is functional.

For orientation: IC50 means the midpoint of a concentration-inhibition curve. High values mean a need for much substance, low ones inhibition by little substance. Consider `CC(=O)NC[C@H]1CN(c2ccc(/C=C/CCCNC(=O)CCc3cccnc3)c(F)c2)C(=O)O1`, for which the MIC was 8 µg/mL (≈ 17.1 µM) with Haemophilus influenzae [1]; 2 µg/mL (≈ 4.27 µM) in the test with Streptococcus pneumoniae; 2 µg/mL (≈ 4.27 µM) in the test with Streptococcus pyogenes; 32 µg/mL (≈ 68.3 µM) with Enterococcus faecalis; over 128 µg/mL against Haemophilus influenzae [2]. In the test on Escherichia coli [3], this molecule registered a half-maximal inhibitory concentration (IC50) of 16000 nM.
Consider `CC(=O)NC[C@H]1CN(c2ccc(/C=C/CCCNC(=O)/C=C/c3c(C)[nH]c(=O)[nH]c3=O)c(F)c2)C(=O)O1`, for which the MIC against Haemophilus influenzae [1] is 1 µg/mL (≈ 1.95 µM); in the test with Streptococcus pneumoniae it was 1 µg/mL (≈ 1.95 µM); in the test with Streptococcus pyogenes, 1 µg/mL (≈ 1.95 µM); with Enterococcus faecalis, 32 µg/mL (≈ 62.3 µM); with Haemophilus influenzae [2], over 128 µg/mL. This molecule returned an IC50 in the test with Escherichia coli [3] of 30 nM.
`CSC[S@@+]([O-])CC(CO)NC(=O)/C=C/c1c(C)[nH]c(=O)[nH]c1=O` (some centres undefined) [SPARSOMYCIN]: the MIC in the test with Haemophilus influenzae [1] was 8 µg/mL (≈ 22.1 µM); in the test on Streptococcus pneumoniae, 2 µg/mL (≈ 5.53 µM); against Streptococcus pyogenes, 2 µg/mL (≈ 5.53 µM); with Enterococcus faecalis it was over 128 µg/mL; in the test on Haemophilus influenzae [2] it was 8 µg/mL (≈ 22.1 µM). In the test with Escherichia coli [3], the IC50 was at most 20 nM.
As to `CC(=O)NC[C@H]1CN(c2ccc(N3CCC(CNC(=O)/C=C/c4c(C)[nH]c(=O)[nH]c4=O)CC3)c(F)c2)C(=O)O1`, the MIC in the test with Haemophilus influenzae [1] was 8 µg/mL (≈ 14.7 µM); in the test on Streptococcus pneumoniae, 4 µg/mL (≈ 7.37 µM); against Streptococcus pyogenes, 4 µg/mL (≈ 7.37 µM); in the test on Haemophilus influenzae [2] it was over 128 µg/mL. The midpoint of inhibition with Escherichia coli [4], the IC50, lay at 260 nM.
On to `CC(=O)NC[C@H]1CN(c2ccc(-c3ccc(CNC(=O)/C=C/c4c(C)[nH]c(=O)[nH]c4=O)cc3)c(F)c2)C(=O)O1`, for which the MIC is at most 0.25 µg/mL against Haemophilus influenzae [1]; at most 0.25 µg/mL in the test on Streptococcus pneumoniae; at most 0.25 µg/mL in the test with Streptococcus pyogenes; 16 µg/mL (≈ 29.9 µM) with Enterococcus faecalis; over 128 µg/mL against Haemophilus influenzae [2]. In addition, the IC50 with Escherichia coli [3] was 30 nM.
For the molecule `CC(=O)NC[C@H]1CN(c2ccc(N3CCOCC3)c(F)c2)C(=O)O1` [LINEZOLID], the MIC in the test on Haemophilus influenzae [1] was determined as 8 µg/mL (≈ 23.7 µM); in the test on Streptococcus pyogenes, 1 µg/mL (≈ 2.96 µM); against Enterococcus faecalis, 32 µg/mL (≈ 94.9 µM); in the test with Haemophilus influenzae [2] it was 16 µg/mL (≈ 47.4 µM).
Turning to `CC(=O)NC[C@H]1CN(c2ccc(-c3ccc(CNC(=O)CCc4cccnc4)cc3)c(F)c2)C(=O)O1`, the MIC was 2 µg/mL (≈ 4.08 µM) in the test on Haemophilus influenzae [1]; 0.5 µg/mL (≈ 1.02 µM) against Streptococcus pneumoniae; 0.5 µg/mL (≈ 1.02 µM) in the test with Streptococcus pyogenes; 16 µg/mL (≈ 32.6 µM) against Enterococcus faecalis; over 128 µg/mL in the test with Haemophilus influenzae [2]. In the test on Escherichia coli [3], this molecule returned an IC50 of 580 nM.

(Values after ChEMBL document CHEMBL1152283, “Design at the atomic level: generation of novel hybrid biaryloxazolidinones as promising new antibiotics” (Bioorg Med Chem Lett, 2008).)
